# Results published in patent US20020035146A1, “Antifungal compounds and compositions and antifungal use thereof” (priority 2000, published 2002).
# What was measured:
# [1] = system: Botrytis rot on rose petals; experiment: Suppression of Botrytis rot on rose petals; format: in vivo; conditions: white rose petals exposed to 100 ppm in the gas phase for 90 minutes before inoculation; assessed after 10 days; two trials combined; control 66.7
# Procedure: Freshly cut white roses were purchased from Zieger & Sons, Inc. rose growers. Non senescing petals were chosen to perform the experiment. Petals were placed in plastic petri dishes (100×20 mm) each containing a moist #3 Whatman filter paper with one petal per petri dish.
# Compound 1, formulated as in Example 1 (0.778 g) was dissolved in 20 ml hot water in a 100 ml jar sealed with a cap. When the powder was dissolved, the jar was placed in a 4.8 liter cabinet containing three petri dishes (without the lids) with petals. The cap of the jar was quickly removed and the cabinets sealed for ninety (90) minutes. The concentration of Compound 1 in the gas phase was 100 ppm.
# After exposure to Compound 1 at 100 ppm the petals were inoculated with two 20μl drops of spore suspension containing 1×10^6 spores per ml. Controls were inoculated without prior exposure to Compound 1.
# Lids were placed on the petri dishes and the dishes were transferred to a plant growth chamber set at a 12 hour photoperiod, a 20° C. day temperature and 18° C. night temperature, and 70% relative humidity to allow disease development. The number of petals with sporulating lesions was determined after 10 days. Two trials were conducted with 3 petals per treatment in each trial. The combined results from the two trials were as follows: […]
# [2] = system: Colletotrichum lagenarium; format: cell-based; conditions: spore suspension, 25° C., 5 days, compound encapsulated in α-cyclodextrin (0.14% by weight)
# Botrytis cinerea = experiment: Technical material v. formulation: inhibition of fungal growth in sealed vials (sulforhodamine B); format: cell-based; conditions: technical material added in acetone, 16 hours
# Procedure: Since compound 1 is a gas at room temperature its activity as a technical material in solution was evaluated in sealed vials with a small head space as follows. Compound 1, formulated by encapsulation in a-cyclodextrin, was also tested for comparison.
# Compound 1 (technical material) was added to 21×50 mm glass vials on dry ice as the appropriate amount of a 14% (w/v) solution in acetone to provide the desired concentrations. (The acetone solutions were kept on dry ice or in a freezer at −80° C. until used.) Controls received the same volumes of acetone alone. A spore suspension (8 ml) of Botrytis cinerea at 2.5×10^4 spores/ml in two-fold diluted SDB was added to each vial. The vials were immediately sealed with polyethylene plugs and placed in a […] incubator for 16 hours. The extent of fungal growth in the vials was determined by measuring their cellular protein content using sulforhodamine B (Skehan, et al., Journal of the National Cancer Institute 82, 1107-1112 (1990)), and the percent inhibition of growth was calculated by comparing growth in the treatments with growth in the controls.
# The desired amounts of Compound 1, formulated by encapsulation in α-cyclodextrin ([…]) were added to glass vials. A spore suspension (8 ml) of Botrytis cinerea at 2.5×10^4 spores/ml in two-fold diluted SDB was added to each vial, and vials processed as described above.
# Pyricularia oryzae = format: cell-based; conditions: spore suspension, 25° C., 5 days, compound encapsulated in α-cyclodextrin (0.14% by weight)
# Phytophthora capsici = format: cell-based; conditions: spore suspension, 25° C., 5 days, compound encapsulated in α-cyclodextrin (0.14% by weight)
# Botrytis cinerea spores = experiment: Inhibition of germination of Botrytis cinerea spores (germination-associated adhesion in microtiter plates, sulforhodamine B); format: cell-based; conditions: B. cinerea spores in SDB, 25° C., 5.5 hours; compound 1 encapsulated in α-cyclodextrin (0.14% by weight)
# Procedure: Compounds were evaluated for the ability to inhibit germination of Botrytis cinerea spores using an assay which measures the inhibition of germination-associated adhesion in microtiter plates. […] This solution was then diluted with SDB to give a solution concentration of compound 2 of 1000 ppm. Comparison compound, AVG, was dissolved in SDB at 5 mg/ml. Two-fold serial dilutions of the solutions of these compounds in SDB were made in 100 μl aliquots of SDB in 96-well microtiter plates. Spore suspension of B. cinerea (100 μl at 2×10^5 spores/ml) was added to the wells. The plates were then incubated at 25° C. for 5.5 hours at which time spores in control wells had germinated. The medium containing unbound spores was removed by inverting and flicking the microtiter plate to remove as much liquid as possible. Quantitation of the adhered spores was achieved by measuring their cellular protein content using sulforhodamine B (see Skehan et al., Journal of the National Cancer Institute, 82, 1107-1112 (1990)), measuring absorbance at 564 nm. Inhibition of adhesion was determined by comparing the absorbance value in a well containing fungicide with the absorbance in control wells without fungicide. EC50 values for germination inhibition were determined from dose-response curves.
# Rhizoctonia solani = format: cell-based; conditions: mycelial homogenate, 25° C., 5 days, compound encapsulated in α-cyclodextrin (0.14% by weight)
# Septoria nodorum = format: cell-based; conditions: spore suspension, 25° C., 2 days, compound encapsulated in α-cyclodextrin (0.14% by weight)
# Pythium ultimum = format: cell-based; conditions: mycelial homogenate, 25° C., 2 days, compound encapsulated in α-cyclodextrin (0.14% by weight)
SMILES,Petals with sporulating lesions (%) [1],EC50 (mycelial growth) [2],% Inhibition of growth (Botrytis cinerea; 175 ppm),% Inhibition of growth (Botrytis cinerea; 350 ppm),% Inhibition of growth (Botrytis cinerea; 525 ppm),EC50 (mycelial growth) (Pyricularia oryzae),EC50 (mycelial growth) (Phytophthora capsici),EC50 for germination inhibition (Botrytis cinerea spores),EC50 (mycelial growth) (Rhizoctonia solani),EC50 (mycelial growth) (Septoria nodorum),EC50 (mycelial growth) (Pythium ultimum)
"CC1=CC1 [Compound 1, 1-methylcyclopropene]",16.7%,>70 ppm,30.1%,99.4%,99.8%,6.7 ppm,6.9 ppm,37 ppm,7.4 ppm,22.5 ppm,2.6 ppm
"CCCCCCCCC1=CC1(F)F [Compound 2, 1-n-octyl-3,3-difluorocyclopropene]",–,–,–,–,–,–,–,3.3 ppm,–,–,–
